Assay results reported in patent US20110190365A1, “Insecticidal 4-phenyl-1H-pyrazoles” (Bayer Crop Science AG, priority 2008, published 2011).

assay: log P by HPLC on a reversed-phase column (C18), EEC Directive 79/831 Annex V.A8; format: physicochemical; details: HCOOH
Procedure: The stated log P values were determined in accordance with EEC Directive 79/831 Annex V.A8 by HPLC (High Performance Liquid Chromatography) using a reversed-phase column (C18).

Row | SMILES | log P (HCOOH)
1 | CC(NC(=O)c1ccc(-n2nc(C(F)(F)F)c(-c3cc(Cl)cc(Cl)c3)c2N)nc1)c1ccccn1 (stereo not drawn) [I-A-Q2-102] | I-A-Q2-102: log P (HCOOH): 4.06
2 | Cc1cc(-n2nc(C(F)(F)F)c(-c3cc(F)cc(Cl)c3)c2N)ccc1C(=O)NCc1ccccn1 [I-A-Q2-344] | I-A-Q2-344: log P (HCOOH): 2.84
3 | COc1cccc(C(F)(F)c2nn(-c3ccc(C(=O)NCC(F)(F)C(F)F)c(C)c3)c(N)c2-c2cc(Cl)cc(C(F)(F)F)c2)c1 [I-A-Q2-288] | I-A-Q2-288: log P (HCOOH): 4.40
4 | Cc1cc(-n2nc(C(F)(F)F)c(-c3cc(Cl)cc(Cl)c3)c2N)ccc1C(=O)NC1CC1 [I-A-Q2-228] | I-A-Q2-228: log P (HCOOH): 3.78
5 | Cc1cc(-n2nc(C(F)(F)F)c(-c3cc(Cl)cc(Cl)c3)c2N)ccc1C(=O)NCc1cc(F)cc(F)c1 [I-A-Q2-040] | I-A-Q2-040: log P (HCOOH): 4.57
6 | CCCC(NC(=O)c1ccc(-n2nc(C(F)(F)F)c(-c3cc(Cl)cc(Cl)c3)c2N)cc1C)C(F)(F)F (stereo not drawn) [I-A-Q2-201] | I-A-Q2-201: log P (HCOOH): 5.11
7 | Cc1cc(-n2nc(C(F)(F)F)c(-c3cc(Cl)cc(Cl)c3)c2N)ccc1C(=O)NC(C)c1ccc(C(F)(F)F)cn1 (stereo not drawn) [I-A-Q2-240] | I-A-Q2-240: log P (HCOOH): 4.70
8 | C=CCNC(=O)c1ccc(-n2nc(C(F)(F)F)c(-c3cc(Cl)cc(Cl)c3)c2N)cc1C [I-A-Q2-062] | I-A-Q2-062: log P (HCOOH): 3.94
9 | CC(NC(=O)c1ccc(-n2nc(C(F)(F)F)c(-c3ccc(F)c(F)c3)c2N)cc1)C(F)(F)F (stereo not drawn) [I-A-Q2-175] | I-A-Q2-175: log P (HCOOH): 3.47
10 | Cc1cc(-n2nc(C(F)(F)F)c(-c3cc(Cl)cc(Cl)c3)c2N)ccc1C(=O)N(C)CC(F)(F)C(F)F [I-A-Q2-033] | I-A-Q2-033: log P (HCOOH): 4.51
11 | Nc1c(-c2cccc(F)c2)c(C(F)(F)F)nn1-c1ccc(C(=O)NCc2ccccn2)cc1 [I-A-Q2-185] | I-A-Q2-185: log P (HCOOH): 2.14
12 | Cc1cc(-n2nc(C(F)F)c(-c3ccc(F)cc3F)c2N)ccc1C(=O)NCc1ccccn1 [I-A-Q2-361] | I-A-Q2-361: log P (HCOOH): 1.91
13 | Cc1cc(-n2nc(C(F)(F)F)c(-c3cc(Cl)cc(Cl)c3)c2N)ccc1C(=O)NC(C)(C)C [I-A-Q2-221] | I-A-Q2-221: log P (HCOOH): 4.51
14 | Cc1cc(-n2nc(C(F)(F)F)c(-c3cc(Cl)cc(Cl)c3)c2N)ccc1C(=O)NC(C)Cc1ccccn1 (stereo not drawn) [I-A-Q2-065] | I-A-Q2-065: log P (HCOOH): 2.72
15 | Cc1cc(-n2nc(C(F)(F)F)c(-c3cccc(Br)c3)c2N)ccc1C(=O)NC(C)c1ccccn1 (stereo not drawn) [I-A-Q2-418] | I-A-Q2-418: log P (HCOOH): 3.22
16 | Cc1cc(-n2nc(C(F)(F)F)c(-c3cc(Cl)cc(Cl)c3)c2N)ccc1C(=O)NC1CCS(=O)(=O)C1 (stereo not drawn) [I-A-Q2-218] | I-A-Q2-218: log P (HCOOH): 3.33
17 | Cc1cc(-n2nc(C(F)(F)F)c(Cl)c2N)ccc1C(=O)NCc1ccccn1 [XI-A-091] | XI-A-091: log P (HCOOH): 1.94
18 | CC(C)NC(=O)c1ccc(-n2nc(C(F)(F)F)c(-c3ccc(Cl)c(Cl)c3)c2N)cc1 [I-A-Q2-154] | I-A-Q2-154: log P (HCOOH): 3.75
19 | Nc1c(-c2cc(Cl)cc(Cl)c2)c(C(F)(F)F)nn1-c1ccc(C(=O)NCc2ccc(Cl)nc2)cc1 [I-A-Q2-148] | I-A-Q2-148: log P (HCOOH): 4.12
20 | Cc1ncc(CNC(=O)c2ccc(-n3nc(C(F)(F)F)c(-c4cc(Cl)cc(Cl)c4)c3N)cc2C)c(N)n1 [I-A-Q2-053] | I-A-Q2-053: log P (HCOOH): 2.04
21 | Cc1cc(-n2nc(C(F)(F)F)c(-c3cc(Cl)cc(Cl)c3)c2N)ccc1C(=O)NCc1ccccc1F [I-A-Q2-112] | I-A-Q2-112: log P (HCOOH): 4.34

Row | SMILES | log P (HCOOH)
22 | Cc1cc(-n2nc(C(F)(F)F)c(-c3ccc(Cl)cc3)c2N)ccc1C(=O)NCC(F)(F)C(F)F [I-A-Q2-302] | I-A-Q2-302: log P (HCOOH): 3.61
23 | Cc1cc(-n2nc(C(F)(F)F)c(-c3cc(Cl)cc(Cl)c3)c2N)ccc1C(=O)NC1CCCCC1 [I-A-Q2-222] | I-A-Q2-222: log P (HCOOH): 4.76
24 | Nc1c(-c2cccc(F)c2)c(C(F)(F)F)nn1-c1ccc(C(=O)NC2CC2)cc1 [I-A-Q2-184] | I-A-Q2-184: log P (HCOOH): 2.76
25 | Cc1cc(C)cc(-c2c(C(F)(F)F)nn(-c3ccc(C(=O)NC4CC4)cc3)c2N)c1 [I-A-Q2-179] | I-A-Q2-179: log P (HCOOH): 3.24
26 | Cc1cc(-n2nc(C)c(-c3ccc(F)cc3Cl)c2N)ccc1C(=O)NCc1ccccn1 [I-A-Q2-368] | I-A-Q2-368: log P (HCOOH): 1.79
27 | Cc1nn(-c2ccc(C(=O)NC(C)C(F)(F)F)cc2)c(Br)c1-c1cccc(Cl)c1 (stereo not drawn) [I-A-Q2-098] | I-A-Q2-098: log P (HCOOH): 4.36
28 | Cc1cc(-n2nc(C(F)(F)F)c(-c3ccccc3C)c2N)ccc1C(=O)NCc1ccccn1 [I-A-Q2-359] | I-A-Q2-359: log P (HCOOH): 2.34
29 | Cc1cc(-n2nc(CC(C)C)c(-c3ccc(Cl)cc3)c2N)ccc1C(=O)NCc1ccccn1 [I-A-Q2-382] | I-A-Q2-382: log P (HCOOH): 2.84
30 | Cc1cc(-n2nc(C(F)(F)F)c(-c3cc(Cl)cc(Cl)c3)c2N)ccc1C(=O)NCC(F)F [I-A-Q2-017] | I-A-Q2-017: log P (HCOOH): 4.04
31 | Cc1cc(-n2nc(C(F)(F)F)c(-c3cc(Cl)cc(Cl)c3)c2[S+](C)[O-])ccc1C(=O)NCc1ccccn1 (stereo not drawn) [I-A-Q2-063, 4-[4-(3,5-Dichlorophenyl)-5-methanesulphinyl-3-trifluoromethylpyrazol-1-yl]-2-methyl-N-pyridin-2-ylmethylbenzamide] | I-A-Q2-063: log P (HCOOH): 3.11
32 | CC(NC(=O)c1ccc(-n2nc(C(F)(F)F)c(-c3cccc(Br)c3)c2N)cc1)C(F)(F)F (stereo not drawn) [I-A-Q2-172] | I-A-Q2-172: log P (HCOOH): 3.73
33 | Cc1cc(-n2nc(C(F)(F)F)c(Br)c2N)ccc1C(=O)NCc1ccccn1 [XI-A-093] | XI-A-093: log P (HCOOH): 1.98
34 | CC(C)(CC(F)(F)F)NC(=O)c1ccc(-n2nc(C(F)(F)F)c(-c3cc(Cl)cc(Cl)c3)c2N)nc1 [I-A-Q2-099] | I-A-Q2-099: log P (HCOOH): 5.42
35 | Cc1cc(-n2nc(C(F)(F)F)c(-c3cccc(F)c3)c2N)ccc1C(=O)NCc1ccccn1 [I-A-Q2-354] | I-A-Q2-354: log P (HCOOH): 2.31
36 | Cc1cc(-n2nc(C(F)(F)F)c(-c3cc(Cl)cc(Cl)c3)c2N)ccc1C(=O)NC(C)c1ccc(Cl)cc1 (stereo not drawn) [I-A-Q2-213] | I-A-Q2-213: log P (HCOOH): 4.89
37 | Cc1cc(-n2nc(C(F)(F)F)c(-c3cc(Cl)cc(Cl)c3)c2N)ccc1C(=O)NC1(c2ccccn2)CC1 [I-A-Q2-244] | I-A-Q2-244: log P (HCOOH): 3.68
38 | CC(C)NC(=O)c1ccc(-n2nc(C(F)(F)F)c(-c3cccc(F)c3)c2N)cc1 [I-A-Q2-181] | I-A-Q2-181: log P (HCOOH): 2.98
39 | Cc1cc(-n2nc(C(F)(F)Oc3ccccc3Cl)c(-c3cc(Cl)cc(C(F)(F)F)c3)c2N)ccc1C(=O)NCC(F)(F)C(F)F [I-A-Q2-298] | I-A-Q2-298: log P (HCOOH): 4.64
40 | CCCNC(=O)c1ccc(-n2nc(C(F)(F)F)c(-c3cc(Cl)cc(Cl)c3)c2N)cc1C [I-A-Q2-202] | I-A-Q2-202: log P (HCOOH): 4.22
41 | Nc1c(-c2cc(Cl)cc(Cl)c2)c(C(F)(F)F)nn1-c1ccc(C(=O)NCc2ccccn2)c(C(F)(F)F)c1 [I-A-Q2-386] | I-A-Q2-386: log P (HCOOH): 3.77

same assay, conditions: HCOOH; Table 4, compounds of formula I-A-Q4

Row | SMILES | log P (HCOOH)
42 | COC(=O)c1ccc(-n2nc(C(F)(F)F)c(-c3cc(Cl)cc(Cl)c3)c2N)cc1N(C)C [I-A-Q4-119] | I-A-Q4-119: log P (HCOOH): 4.71
43 | Cc1nn(-c2ccc(Cl)cn2)c(N)c1-c1cccc(Cl)c1 [I-A-Q4-034] | I-A-Q4-034: log P (HCOOH): 4.40
44 | Cc1nn(-c2ccc(Cl)cn2)c(N)c1-c1ccc(Cl)c(Cl)c1 [I-A-Q4-060] | I-A-Q4-060: log P (HCOOH): 5.02
45 | CSc1c(-c2ccc(Cl)c(Cl)c2)c(C(F)(F)F)nn1-c1ncc(Cl)cn1 [I-A-Q4-020] | I-A-Q4-020: log P (HCOOH): 5.22
46 | Nc1c(-c2ccc(F)cc2F)c(C(F)F)nn1-c1ccc(Cl)cn1 [I-A-Q4-056] | I-A-Q4-056: log P (HCOOH): 3.84
47 | N#Cc1cc(-n2nc(C(F)(F)F)c(-c3cc(Cl)cc(Cl)c3)c2N)ccc1S(=O)(=O)NCC(F)(F)F [I-A-Q4-123] | I-A-Q4-123: log P (HCOOH): 4.41
48 | Nc1c(-c2ccc(F)c(F)c2)c(C(F)(F)F)nn1-c1ccc(C(=O)O)cc1 [I-A-Q4-092] | I-A-Q4-092: log P (HCOOH): 3.06
49 | N#Cc1cc(-n2nc(C(F)(F)F)c(-c3cc(Cl)cc(Cl)c3)c2N)ccc1S(=O)(=O)NC1CCC1 [I-A-Q4-122] | I-A-Q4-122: log P (HCOOH): 4.69
50 | COC(=O)c1ccc(-n2nc(C(F)(F)F)c(-c3cc(Cl)cc(Cl)c3)c2N)cc1Cl [I-A-Q4-104] | I-A-Q4-104: log P (HCOOH): 5.07
51 | Nc1c(-c2cc(F)c(F)c(F)c2)c(C(F)(F)F)nn1-c1ccc(Cl)cn1 [I-A-Q4-053] | I-A-Q4-053: log P (HCOOH): 4.89

same assay, conditions: HCOOH; compounds of the formula (IX), Table 11

Row | SMILES | log P (HCOOH)
52 | CC(=O)Nc1[nH]nc(C(F)(F)F)c1-c1cc(Cl)cc(Cl)c1 [IX-203] | IX-203: log P (HCOOH): 2.98

same assay, conditions: HPLC, reversed-phase C18, mobile phase with formic acid

Row | SMILES | log P (HCOOH)
53 | N#Cc1cnn(-c2ccc(-n3nc(C(F)(F)F)c(-c4cc(Cl)cc(Cl)c4)c3N)cc2C#N)c1 [I-A-Q1-079] | I-A-Q1-079: log P (HCOOH): 4.28
54 | N#Cc1cc(-n2nc(C(F)F)c(-c3ccc(Cl)cc3)c2N)ccc1-n1cncn1 [I-A-Q1-030] | I-A-Q1-030: log P (HCOOH): 2.92
55 | Cc1nn(-c2ccc(-n3cncn3)c(C#N)c2)c(N)c1-c1ccc(F)cc1 [I-A-Q1-059] | I-A-Q1-059: log P (HCOOH): 2.30
56 | Cc1nn(-c2ccc(-n3cncn3)c(C#N)c2)c(N)c1-c1ccc(Cl)cc1Cl [I-A-Q1-056] | I-A-Q1-056: log P (HCOOH): 2.80
57 | Cc1nn(-c2ccc(-n3cncn3)c(C#N)c2)c(N)c1-c1cc(F)ccc1F [I-A-Q1-061] | I-A-Q1-061: log P (HCOOH): 2.29
58 | Cc1nn(-c2ccc(-n3cncn3)c(C#N)c2)c(N)c1-c1cc(Cl)ccc1Cl [I-A-Q1-028] | I-A-Q1-028: log P (HCOOH): 2.65
59 | CC(=O)NCc1ccc(-n2nc(C(F)(F)F)c(-c3cc(Cl)cc(Cl)c3)c2N)cc1Cl [I-A-Q3-023] | I-A-Q3-023: log P (HCOOH): 3.70

same assay, conditions: HPLC, reversed-phase C18, mobile phase with formic acid; read-out: log P (HCOOH)

Row | SMILES | chromatographic logP
60 | Cc1cc(-n2nc(C(F)(F)F)c(-c3cc(Cl)cc(Cl)c3)c2[S+](C)[O-])ccc1C(=O)NCc1ccccn1 (stereo not drawn) [I-A-Q2-063, 4-[4-(3,5-Dichlorophenyl)-5-methanesulphinyl-3-trifluoromethylpyrazol-1-yl]-2-methyl-N-pyridin-2-ylmethylbenzamide] | 3.11
